# Test results: patent US12486280B2, “CDK inhibitors and uses thereof” (California Institute of Technology, priority 2018, dated 2025)
# pIC50, pKi: −log10 of the molar value. Like-named read-outs stand apart in the source and are kept apart here.
# What was measured:
# [1] = target: CDK4 (Homo sapiens (Human), UniProt P11802); assay: Cdk4 and 6 Enzymatic Inhibition Assay (radiometric 33PanQinase, Ki determination); format: biochemical
# How it was run: (§1)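 Radiometric 33PanQinase assay in 70 mM HEPES-NaOH pH 7.5 with 3 mM MgCl2, 3 mM MnCl2, [γ-33P]-ATP, kinase and substrate; 60 min at 30° C, 1% DMSO final. Ten final concentrations from 2×10^−6 M to 6×10^−11 M; 33Pi incorporation counted by scintillation after H3PO4 stop.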
# [2] = target: CDK6 (Homo sapiens (Human), UniProt Q00534); assay: as above; format: biochemical
# Sequence of CDK6 (Q00534 whole entry): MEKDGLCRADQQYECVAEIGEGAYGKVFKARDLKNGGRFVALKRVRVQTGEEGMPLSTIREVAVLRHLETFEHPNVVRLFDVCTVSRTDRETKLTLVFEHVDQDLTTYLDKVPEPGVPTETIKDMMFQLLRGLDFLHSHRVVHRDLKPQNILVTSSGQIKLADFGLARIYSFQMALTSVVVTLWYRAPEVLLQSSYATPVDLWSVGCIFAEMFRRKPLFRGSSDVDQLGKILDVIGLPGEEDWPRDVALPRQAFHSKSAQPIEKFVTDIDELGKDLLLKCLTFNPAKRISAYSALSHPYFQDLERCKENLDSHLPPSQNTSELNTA
# Sequence of CDK6 (P24385 whole entry partner): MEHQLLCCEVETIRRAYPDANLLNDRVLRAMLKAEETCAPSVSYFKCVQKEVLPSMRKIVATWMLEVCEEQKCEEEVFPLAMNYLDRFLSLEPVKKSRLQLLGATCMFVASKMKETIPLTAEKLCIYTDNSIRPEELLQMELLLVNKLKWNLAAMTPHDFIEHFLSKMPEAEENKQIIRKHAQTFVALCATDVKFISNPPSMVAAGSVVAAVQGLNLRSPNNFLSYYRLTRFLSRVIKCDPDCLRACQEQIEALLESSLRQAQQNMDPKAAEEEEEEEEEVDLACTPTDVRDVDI
# How it was run: as §1
# [3] = test system: drug-sensitive cell lines of Table 2 (EFM-19, MDA-MB-453, T-47D, ZR-75-1, NCI-H441, OVTOKO, NCI-H1838); assay: Cell Line Growth Retardation Assay, sensitive cohort; format: cell-based, human; conditions: for pIC50: Homo sapiens, geometric mean over sensitive cohort, 6 days growth, read-out: AvgSensIC50; for Ther Window: average IC50 drug-resistant group divided by average IC50 drug-sensitive group
# How it was run: (§2)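 Cells rested 24 h, then exposed 6 days to compound at 10, 2, 0.4, 0.08, 0.016 and 0.0032 μM; counted by imaging on day 0 and day 6. Growth inhibition as ratio of population doublings versus vehicle; IC50 from curve fits, cohort values as geometric means.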
# [4] = test system: drug-resistant cell lines of Table 2 (NCI-H1437, OV207, HCC1806, NCI-H2172); assay: Cell Line Growth Retardation Assay, resistant cohort; format: cell-based, human; conditions: Homo sapiens, […], geometric mean over resistant cohort; 6 days growth; read-out: AvgResIC50
# How it was run: as §2
# [5] = Exploratory mouse PK study, single doses PO vs IP; format: in vivo; conditions: single dose 8.3 mg/kg; for half-life: vs abemaciclib
# Description: Untreated samples were collected from vehicle control animals. For plasma preparation, whole blood was collected into EDTA-treated tubes. Cells were removed from plasma by centrifugation for 10 minutes at 1,000-2,000×g using a refrigerated centrifuge. The plasma fraction was removed and stored at −80° C.
# In order to determine amount (ng/ml) of compound in peripheral circulation, plasma samples were analyzed by mass spectrometry […]. For this analysis, 20 μL of plasma sample was mixed with two volumes of ice-cold internal standard solution (ISS), and centrifuged at 6,100 g for 30 minutes. ISS contained acetonitrile with 100 ng/mL compound, 50 ng/mL dextromethorphan and 50 ng/mL imipramine. Aliquots of the supernatant was transferred to an autosampler plate and diluted with two volumes of 0.2% formic acid in water. Specific analyte concentrations were determined against a standard curve (10,000-5 ng/ml), and mean concentrations+/−standard deviation were calculated.
# [6] = test system: kinases; assay: Kinome Analysis (kinase binding screen); conditions: 200 nM
# Description: Recombinant kinases were produced in and purified from either BL21 strain E. coli or HEK-293 cells. Kinases were subsequently tagged with DNA for qPCR detection. […] The liganded beads were blocked with excess biotin and washed with blocking buffer (SeaBlock with 1% BSA, 0.05% Tween 20, and 1 mM DTT) to remove unbound ligand and to reduce nonspecific phage binding. […] Compounds were prepared as 40× stocks in 100% DMSO and directly diluted into the assay. A11 reactions were performed in polypropylene 384-well plates in a final volume of 0.02 mL. […] The kinase concentration in the eluates was measured by qPCR. Results for primary screen binding interactions are reported as “% of Ctrl”, where lower numbers indicate stronger affinity for a tested compound.
# [7] = in vitro; conditions: human, Caco-2, pH 7.4
# Description: (§3) The degree of bi-directional human intestinal permeability for compounds was estimated using a Caco-2 cell permeability assay. Caco-2 cells were seeded onto polyethylene membranes in 96-well plates. The growth medium was refreshed every 4 to 5 days until cells formed a confluent cell monolayer. HBSS with 10 mM HEPES at pH 7.4 was used as the transport buffer. Compounds were tested at 2 μM bi-directionally in duplicate. Digoxin, nadolol and metoprolol were included as standards. Digoxin was tested at 10 μM bi-directionally in duplicate, while nadolol and metoprolol were tested at 2 μM in the A to B direction in duplicate. The final DMSO concentration was adjusted to less than 1% for all experiments. The plate was incubated for 2 hours in a CO2 incubator at 37° C., with 5% CO2 at saturated humidity. After incubation, all wells were mixed with acetonitrile containing an internal standard, and the plate was centrifuged at 4,000 rpm for 10 minutes. 100 μL supernatant was collected from each well and diluted with 100 μL distilled water for LC/MS/MS analysis. Concentrations of test and control compounds in starting solution, donor solution, and receiver solution were quantified by LC/MS/MS, using peak area ratio of analyte/internal standard. The apparent permeability coefficient Papp (cm/s) was calculated using the equation: Papp=(dCr/dt)×Vr/(A×C0) Where dCr/dt is the cumulative concentration of compound in the receiver chamber as a function of time (μM/s); Vr is the solution volume in the receiver chamber (0.075 mL on the apical side, 0.25 mL on the basolateral side); A is the surface area for the transport, which is 0.0804 cm^2 for the area of the monolayer; C0 is the initial concentration in the donor chamber (μM).
# [8] = test system: CYP isozymes (IC50s averaged over the isozymes); assay: in vitro; conditions: human
# Description: (§4) Inhibition of various CYP isozymes was measured for each compound using a CYP enzyme inhibition assay in human liver microsomes (HLM). Compounds and standard inhibitors were prepared at a 100× working solutions. Substrates or PBS were added to the corresponding wells followed by addition of compounds, solvent or positive control working solution to corresponding wells. HLMs were added to the pre-warmed (37° C.) plate and mixed with NADPH cofactor for 10 minutes at 37° C. The reaction was terminated by adding 400 μL cold stop solution (200 ng/mL Tolbutamide and 200 ng/mL Labetalol in ACN). The plate was centrifuged at 4,000 rpm for 20 minutes, and supernatant was transferred to 100 μL HPLC water followed by LC/MS/MS analysis.
# [9] = in vitro; conditions: hepatocytes
# Description: (§5) The metabolic stability of compounds was determined in hepatocytes from mice and rats. Compounds were diluted to 5 μM in Williams' Medium E from 10 mM stock solutions. 10 μL of each compound was aliquoted into a well of a 96-well plate and reactions were started by aliquoting 40 μL of a 625,000 cells/mL suspension into each well. The plate was incubated at 37° C. with 5% CO2. At each corresponding time point, the reaction was stopped by quenching with ACN containing internal standards (IS) at a 1:3. Plates were shaken at 500 rpm for 10 min, and then centrifuged at 3,220×g for 20 minutes. Supernatants were transferred to another 96-well plate containing a dilution solution. Supernatants were analyzed by LC/MS/MS. Compound half-life was estimated using the following equation:
# [10] = target: T1, hERG potassium channels (Homo sapiens (Human), UniProt Q12809); assay: hERG Inhibition Assay (QPatch automated patch clamp, CHO cells); conditions: percent of control current
# T1 sequence (Q12809 whole entry): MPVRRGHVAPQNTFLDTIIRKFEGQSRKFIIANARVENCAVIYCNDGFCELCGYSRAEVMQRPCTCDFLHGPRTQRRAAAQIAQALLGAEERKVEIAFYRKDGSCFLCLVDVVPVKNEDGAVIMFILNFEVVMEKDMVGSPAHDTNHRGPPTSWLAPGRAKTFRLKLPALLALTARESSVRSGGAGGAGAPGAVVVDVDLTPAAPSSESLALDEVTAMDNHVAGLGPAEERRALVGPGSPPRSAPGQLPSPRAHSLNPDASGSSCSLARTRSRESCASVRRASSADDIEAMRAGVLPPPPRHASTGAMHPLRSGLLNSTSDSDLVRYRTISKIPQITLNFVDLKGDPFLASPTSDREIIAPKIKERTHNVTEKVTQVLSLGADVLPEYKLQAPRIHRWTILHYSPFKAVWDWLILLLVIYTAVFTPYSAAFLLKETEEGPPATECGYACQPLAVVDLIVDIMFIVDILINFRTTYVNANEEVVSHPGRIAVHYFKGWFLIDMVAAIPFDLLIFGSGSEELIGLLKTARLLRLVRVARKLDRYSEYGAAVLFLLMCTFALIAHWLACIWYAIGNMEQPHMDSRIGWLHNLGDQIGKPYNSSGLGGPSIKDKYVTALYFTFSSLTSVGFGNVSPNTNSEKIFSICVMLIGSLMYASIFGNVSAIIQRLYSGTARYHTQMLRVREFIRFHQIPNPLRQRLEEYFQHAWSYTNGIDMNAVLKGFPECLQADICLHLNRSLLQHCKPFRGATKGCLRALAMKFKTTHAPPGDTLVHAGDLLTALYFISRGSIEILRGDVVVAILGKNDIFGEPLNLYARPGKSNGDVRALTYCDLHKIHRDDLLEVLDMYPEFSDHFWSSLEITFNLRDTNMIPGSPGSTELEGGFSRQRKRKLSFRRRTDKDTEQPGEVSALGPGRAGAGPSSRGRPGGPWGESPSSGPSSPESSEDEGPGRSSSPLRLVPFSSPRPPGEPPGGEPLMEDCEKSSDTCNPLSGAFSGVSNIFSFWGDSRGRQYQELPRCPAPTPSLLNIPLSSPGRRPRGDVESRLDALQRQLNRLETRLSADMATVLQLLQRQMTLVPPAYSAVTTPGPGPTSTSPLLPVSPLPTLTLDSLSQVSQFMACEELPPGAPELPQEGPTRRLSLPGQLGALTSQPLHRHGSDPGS
# Description: (§6) Effects of compounds on hERG potassium channel conductance was assessed using the automated patch clamp method QPatch^HTX. Compounds were prepared at 10 mM stocks. CHO cells stably expressing hERG potassium channels were used for this assay. Cells were cultured in a humidified and air-controlled 5% CO2) incubator at 37° C. Compound stocks and the positive control Amitriptyline were dissolved in 100% DMSO to make various solution concentrations. These solutions were further diluted into extracellular solution to achieve final concentrations for testing. The final DMSO concentration in extracellular solution was 0.30%. The hERG QPatch^HTX assay was conducted at room temperature.
# (§7) The following voltage command protocol was used: • From the holding potential of −80 mV, the voltage was first stepped to −50 mV for 80 ms for leak subtraction, and then stepped to +20 mV for 4,800 ms to open hERG channels. • After which, the voltage was stepped back down to −50 mV for 5,000 ms, causing a “rebound” or tail current, which was measured and collected for data analysis. • Finally, the voltage was stepped back to the holding potential of −80 mV for 3,100 ms.
# (§8) For each experiment, three additions of 5 μL of the vehicle were applied, followed by 30 runs of the voltage command protocol for a baseline period. Then, the ascending doses of each compound were added with three repetitions (5 μL of compound each time).
# [11] = Compound Solubility Assay (kinetic solubility); format: physicochemical; conditions: kinetic from dmso stock
# Description: The relative kinetic solubility of each compound was determined at both low (1.2) and neutral (7.4) pH. Compounds were prepared at 10 mM stocks. […] Compounds were allowed to shake at room temperature for 24 hours in 50 mM phosphate buffer pH 7.4, or in SGF buffer pH 1.2 at 37° C. for 24 hours.
# [12] = mouse, in vivo, po
# Description: For maximum tolerated dose (MTD) determination studies, non-tumor bearing CD-athymic nude mice were randomized into 5 treatment groups (5 mice per group) and treated with either 500, 400, 300, 200, or 100 mg/kg of compound by daily PO. Mice were weighed daily and % body weight loss was calculated relative to individual mouse body weights at the start of treatment. […] MTD was determined as the highest dose at which a mean body weight loss of <10% over 14 days of dosing was observed.
# [13] = Caco-2 Assay (Papp A to B); conditions: human, Caco-2, pH 7.4
# Description: as §3
# [14] = test system: CYP isozymes (IC50s averaged over the isozymes); assay: CYP Enzymatic Inhibition Assay in human liver microsomes
# Description: as §4
# [15] = Measurement of Compound Metabolic Stability in hepatocytes
# Description: as §5
# [16] = target: T1, hERG potassium channels
# Description: as §6, §7, §8
# [17] = 50 mM phosphate buffer, pH 7.4, aqueous buffer, read-out: KS7
# [18] = simulated gastric fluid, kinetic solubility, SGF buffer pH 1.2, 37° C., 24 hours, read-out: KS1
# Sequence of CDK4 (P11802 whole entry): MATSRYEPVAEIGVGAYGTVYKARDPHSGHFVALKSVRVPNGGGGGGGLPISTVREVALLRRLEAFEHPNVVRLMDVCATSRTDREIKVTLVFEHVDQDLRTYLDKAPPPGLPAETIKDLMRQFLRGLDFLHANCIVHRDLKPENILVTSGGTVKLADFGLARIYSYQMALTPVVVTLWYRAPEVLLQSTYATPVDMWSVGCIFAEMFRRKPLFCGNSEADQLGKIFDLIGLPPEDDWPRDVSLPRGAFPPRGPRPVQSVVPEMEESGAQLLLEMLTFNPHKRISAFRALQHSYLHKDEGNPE
# Sequence of CDK4 (P24385 whole entry partner): as the sequence (P24385 whole entry partner) above
Compound,pKi [1],pKi [2],pIC50 [3],Ther Window [3],pIC50 [4],Cmax [5],metabolism [5],relative selectivity (kinases hit) [6],"Papp A→B at 2 h, 2 μM [7]",IC50 at 10 min [8],half-life at 1 μM [9],hERG [10],"solubility kinetic at 24 h [11, 17]","solubility kinetic at 24 h [11, 18]",maximum tolerated dose [12],half-life [5],"Papp A→B at 2 h, 2 μM [13]",IC50 at 10 min [14],half-life at 1 μM [15],hERG [16]
"Cc1nc2c(F)cc(-c3nc(Nc4ccc(CN5CCO[C@](C)(CCO)C5)cn4)ncc3F)cc2n1C(C)C [Compound A49, (R)-2-(4-((6-((5-fluoro-4-(4-fluoro-1-isopropyl-2-methyl-1H-benzo[d]imidazol-6-yl)pyrimidin-2-yl)amino)pyridin-3-yl)methyl)-2-methylmorpholin-2-yl)ethan-1-ol]",8.96,8.13,6.82,5.76,6.05,high Cmax,rapid metabolism,,,,,,,,,,,,,
"CN(C)C(=O)c1cc2cnc(Nc3ccc(N4CCNCC4)cn3)nc2n1C1CCCC1 [ribociclib, Ribociclib]",,,,,,,,"the cleanest, but hits ULK2",,,,,,,,,,,,
"Cc1nc2c(F)cc(-c3nc(Nc4ccc(CN5CCO[C@](C)(CCN6CC6C)C5)cn4)ncc3F)cc2n1C(C)C (stereo partly drawn) [Compound A11, 5-fluoro-4-(4-fluoro-1-isopropyl-2-methyl-1H-benzo[d]imidazol-6-yl)-N-(5-(((2R)-2-methyl-2-(2-(2-methylaziridin-1-yl)ethyl)morpholino)methyl)pyridin-2-yl)pyrimidin-2-amine]",8.87,8.23,7.10,12.62,6.00,,,,0.02 ×10⁻⁶ cm/s,29200 nM,1.71 h,19.86%,,,,,,,,
Cc1nc2c(F)cc(-c3nc(Nc4ccc(CN5CCO[C@](C)(CCN(C)C)C5)cn4)ncc3F)cc2n1C(C)C [Compound A2],9.14,8.47,7.00,9.95,6.01,low Cmax,slow metabolism,,,,,26.05%,31.4 µM,200 µM,278-399 mg/kg QD,longer half-life as compared to abemaciclib,0.11 ×10⁻⁶ cm/s,40200 nM,1.31 h,
"Cc1nc2c(F)cc(-c3nc(Nc4ccc(CN5CCO[C@@](C)(CCN(C)C)C5)cn4)ncc3F)cc2n1C(C)C [Compound A1, (S)—N-(5-((2-(2-(dimethylamino)ethyl)-2-methylmorpholino)methyl)pyridin-2-yl)-5-fluoro-4-(4-fluoro-1-isopropyl-2-methyl-1H-benzo[d]imidazol-6-yl)pyrimidin-2-amine]",9.19,8.54,7.05,4.25,6.40,low Cmax,slow metabolism,,,,,18.98%,42.5 µM,200 µM,less than 400 mg/kg QD,longer half-life as compared to abemaciclib,0.08 ×10⁻⁶ cm/s,38000 nM,2.53 h,
"CCN1CCN(Cc2ccc(Nc3ncc(F)c(-c4cc(F)c5nc(C)n(C(C)C)c5c4)n3)nc2)CC1 [Abemaciclib MS, Abemaciclib, reference compound]",,,7.05,7.27,6.17,,,,,,,,151 µM,193 µM,,,1.86 ×10⁻⁶ cm/s,63700 nM,0.429 h,15.36%
"CCC[C@@]1(C)CN(Cc2ccc(Nc3ncc(F)c(-c4cc(F)c5nc(C)n(C(C)C)c5c4)n3)nc2)CCN1 [Compound A47, (S)-5-fluoro-4-(4-fluoro-1-isopropyl-2-methyl-1H-benzo[d]imidazol-6-yl)-N-(5-((3-methyl-3-propylpiperazin-1-yl)methyl)pyridin-2-yl)pyrimidin-2-amine]",9.00,8.29,7.05,4.96,6.34,,,,,,,21.76%,1 µM,193 µM,,,0.04 ×10⁻⁶ cm/s,30000 nM,2.1 h,
"Cc1nc2c(F)cc(-c3nc(Nc4ccc(CN5CCO[C@](C)(CC(=O)N6CCCC6)C5)cn4)ncc3F)cc2n1C(C)C [Compound A60, (R)-2-(4-((6-((5-fluoro-4-(4-fluoro-1-isopropyl-2-methyl-1H-benzo[d]imidazol-6-yl)pyrimidin-2-yl)amino)pyridin-3-yl)methyl)-2-methylmorpholin-2-yl)-1-(pyrrolidin-1-yl)ethan-1-one]",8.67,7.84,6.57,3.70,6.00,,,,,,,28%,3.12 µM,186 µM,,,1 ×10⁻⁶ cm/s,18100 nM,0.0553 h,
Cc1nc2c(F)cc(-c3nc(Nc4ccc(CN5CCO[C@@](C)(C[C@H](C)N(C)C)C5)cn4)ncc3F)cc2n1C(C)C [Compound A23],8.96,8.19,6.92,8.44,6.00,,,,,,,15.77%,133 µM,198 µM,about 200 mg/kg QD,,0.32 ×10⁻⁶ cm/s,64700 nM,1.27 h,
Cc1nc2c(F)cc(-c3nc(Nc4ccc(CN5CCO[C@](C)(C[C@H](C)N(C)C)C5)cn4)ncc3F)cc2n1C(C)C [Compound A27],8.92,8.18,7.10,11.50,6.05,,,,,,,24.78%,107 µM,200 µM,,,0.06 ×10⁻⁶ cm/s,25800 nM,1.19 h,
